# From publication PMC4979471 (Cell Death Discovery, 2015)
# Where two headings read alike, the source gives them in different places.
# Key:
# Assay in all cases: Kinase selectivity, P33-radiolabeled assay
# Assay type in all cases: biochemical
# Conditions in all cases: 10 μM ATP
# [1] = molecular target: T1, PKCzeta (Homo sapiens, UniProt Q05513)
# T1 construct: purchased Reaction Biology Corp
# T1 sequence (Q05513 1-592): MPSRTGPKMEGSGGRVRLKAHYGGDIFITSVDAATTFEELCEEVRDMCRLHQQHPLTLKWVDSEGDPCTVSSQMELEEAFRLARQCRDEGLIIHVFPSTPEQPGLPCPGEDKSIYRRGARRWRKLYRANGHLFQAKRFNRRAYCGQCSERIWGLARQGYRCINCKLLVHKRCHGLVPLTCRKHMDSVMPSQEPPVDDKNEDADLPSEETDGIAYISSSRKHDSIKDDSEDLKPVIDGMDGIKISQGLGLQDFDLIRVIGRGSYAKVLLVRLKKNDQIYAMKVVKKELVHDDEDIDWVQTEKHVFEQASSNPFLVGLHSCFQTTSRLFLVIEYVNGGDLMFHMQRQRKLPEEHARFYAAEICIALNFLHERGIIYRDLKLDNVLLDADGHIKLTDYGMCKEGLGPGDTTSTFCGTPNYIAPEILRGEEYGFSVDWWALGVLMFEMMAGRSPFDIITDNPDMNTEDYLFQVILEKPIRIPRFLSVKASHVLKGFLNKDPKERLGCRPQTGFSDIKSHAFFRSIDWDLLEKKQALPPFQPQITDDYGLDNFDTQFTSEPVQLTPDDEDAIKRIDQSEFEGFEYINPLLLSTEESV
# How it was run: (§1)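 Each enzyme was exposed to 10 μM compound, with duplicate measurements, in reactions containing 10 μM ATP. Numbers are remaining activity as a percent of the vehicle (DMSO) signal.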
# [2] = molecular target: T2, DDR1 (Homo sapiens, UniProt Q08345)
# T2 construct: purchased Reaction Biology Corp
# How it was run: as §1
# [3] = molecular target: T3, Aurora A (Homo sapiens, UniProt O14965)
# T3 construct: purchased Reaction Biology Corp
# T3 sequence (O14965 1-403): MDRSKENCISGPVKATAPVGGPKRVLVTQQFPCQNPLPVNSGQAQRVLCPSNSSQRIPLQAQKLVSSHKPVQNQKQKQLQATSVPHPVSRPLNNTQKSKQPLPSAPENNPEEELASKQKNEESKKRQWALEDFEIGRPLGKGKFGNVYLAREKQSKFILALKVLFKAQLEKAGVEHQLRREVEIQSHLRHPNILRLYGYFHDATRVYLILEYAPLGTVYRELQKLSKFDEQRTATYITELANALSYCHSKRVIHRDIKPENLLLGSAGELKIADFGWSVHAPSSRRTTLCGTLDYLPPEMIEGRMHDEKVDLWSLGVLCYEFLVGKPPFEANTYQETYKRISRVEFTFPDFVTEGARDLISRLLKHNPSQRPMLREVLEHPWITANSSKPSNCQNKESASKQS
# How it was run: as §1
# [4] = molecular target: T4, ALK5/TGFBR1 (Homo sapiens, UniProt P36897)
# T4 construct: purchased Reaction Biology Corp
# T4 sequence (P36897 34-503): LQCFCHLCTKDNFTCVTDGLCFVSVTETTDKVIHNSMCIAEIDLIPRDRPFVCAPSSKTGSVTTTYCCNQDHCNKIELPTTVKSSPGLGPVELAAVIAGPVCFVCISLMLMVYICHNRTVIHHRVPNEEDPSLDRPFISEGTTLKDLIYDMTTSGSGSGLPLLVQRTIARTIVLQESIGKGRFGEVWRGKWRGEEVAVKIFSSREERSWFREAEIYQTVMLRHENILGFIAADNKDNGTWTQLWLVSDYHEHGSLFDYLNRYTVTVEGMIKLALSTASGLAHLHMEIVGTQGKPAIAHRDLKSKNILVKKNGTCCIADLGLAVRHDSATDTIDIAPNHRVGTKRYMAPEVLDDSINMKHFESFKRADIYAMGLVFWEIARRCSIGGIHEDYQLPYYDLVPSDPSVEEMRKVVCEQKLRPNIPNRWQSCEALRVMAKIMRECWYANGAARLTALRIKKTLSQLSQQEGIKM
# How it was run: as §1
# [5] = molecular target: T5, STK32B/YANK2 (Homo sapiens, UniProt Q9NY57)
# T5 construct: purchased Reaction Biology Corp
# How it was run: as §1
# [6] = molecular target: T6, STK38/NDR1 (Homo sapiens, UniProt Q15208)
# T6 construct: purchased Reaction Biology Corp
# How it was run: as §1
# [7] = molecular target: T7, DMPK (Homo sapiens, UniProt Q09013)
# T7 construct: purchased Reaction Biology Corp
# T7 sequence (Q09013 1-629): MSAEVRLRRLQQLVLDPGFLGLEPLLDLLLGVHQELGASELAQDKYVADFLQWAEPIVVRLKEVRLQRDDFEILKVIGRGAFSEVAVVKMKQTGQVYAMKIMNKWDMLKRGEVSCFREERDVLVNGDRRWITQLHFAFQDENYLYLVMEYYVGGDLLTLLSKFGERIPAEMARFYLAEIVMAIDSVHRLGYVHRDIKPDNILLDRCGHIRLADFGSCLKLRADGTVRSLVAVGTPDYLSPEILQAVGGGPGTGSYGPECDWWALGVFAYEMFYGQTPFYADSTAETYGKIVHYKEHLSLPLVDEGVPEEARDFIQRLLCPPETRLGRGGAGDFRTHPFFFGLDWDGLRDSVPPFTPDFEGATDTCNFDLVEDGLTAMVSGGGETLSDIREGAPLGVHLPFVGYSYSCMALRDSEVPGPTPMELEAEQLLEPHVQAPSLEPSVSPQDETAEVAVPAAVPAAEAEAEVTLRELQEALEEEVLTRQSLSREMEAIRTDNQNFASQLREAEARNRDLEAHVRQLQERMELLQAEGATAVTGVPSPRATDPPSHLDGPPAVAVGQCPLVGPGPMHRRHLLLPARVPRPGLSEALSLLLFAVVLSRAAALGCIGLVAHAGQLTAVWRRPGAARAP
# How it was run: as §1
# [8] = molecular target: T8, CAMKK2 (Homo sapiens, UniProt Q96RR4)
# T8 construct: purchased Reaction Biology Corp
# How it was run: as §1
# [9] = molecular target: T9, FRK/PTK5 (Homo sapiens, UniProt P42685)
# T9 construct: purchased Reaction Biology Corp
# How it was run: as §1
# [10] = read-out: % Enzyme Activity (relative to DMSO controls) AVG
# [11] = read-out: % Enzyme Activity (relative to DMSO controls) Data 1
# [12] = read-out: % Enzyme Activity (relative to DMSO controls) Data 2
# T8 sequence (Q96RR4 whole entry): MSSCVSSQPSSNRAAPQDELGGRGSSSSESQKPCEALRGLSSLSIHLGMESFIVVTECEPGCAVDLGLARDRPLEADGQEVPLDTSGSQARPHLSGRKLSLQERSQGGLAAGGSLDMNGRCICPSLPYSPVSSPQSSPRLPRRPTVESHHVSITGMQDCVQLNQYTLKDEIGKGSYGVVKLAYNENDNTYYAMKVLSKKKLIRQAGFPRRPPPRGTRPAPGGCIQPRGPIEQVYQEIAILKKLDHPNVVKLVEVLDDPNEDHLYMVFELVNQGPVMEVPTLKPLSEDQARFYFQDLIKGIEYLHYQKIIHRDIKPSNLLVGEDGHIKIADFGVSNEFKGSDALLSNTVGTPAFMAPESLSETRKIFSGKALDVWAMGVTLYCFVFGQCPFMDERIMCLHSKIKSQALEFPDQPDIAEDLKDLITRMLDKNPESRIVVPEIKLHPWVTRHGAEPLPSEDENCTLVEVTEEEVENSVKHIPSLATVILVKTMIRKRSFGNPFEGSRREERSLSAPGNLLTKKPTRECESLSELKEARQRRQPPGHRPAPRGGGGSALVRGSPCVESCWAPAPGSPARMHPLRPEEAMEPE
# T5 sequence (Q9NY57 whole entry): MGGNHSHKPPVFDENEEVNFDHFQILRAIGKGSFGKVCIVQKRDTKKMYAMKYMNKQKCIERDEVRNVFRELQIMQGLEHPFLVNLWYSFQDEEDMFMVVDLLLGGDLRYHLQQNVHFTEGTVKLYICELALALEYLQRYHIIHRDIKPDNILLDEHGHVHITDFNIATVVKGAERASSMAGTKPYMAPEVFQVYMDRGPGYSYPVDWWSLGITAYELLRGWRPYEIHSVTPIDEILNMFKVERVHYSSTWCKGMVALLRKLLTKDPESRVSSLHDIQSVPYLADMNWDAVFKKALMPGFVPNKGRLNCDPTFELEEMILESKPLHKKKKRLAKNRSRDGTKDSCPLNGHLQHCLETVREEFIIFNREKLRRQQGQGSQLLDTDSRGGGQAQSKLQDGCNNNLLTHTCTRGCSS
# T6 sequence (Q15208 whole entry): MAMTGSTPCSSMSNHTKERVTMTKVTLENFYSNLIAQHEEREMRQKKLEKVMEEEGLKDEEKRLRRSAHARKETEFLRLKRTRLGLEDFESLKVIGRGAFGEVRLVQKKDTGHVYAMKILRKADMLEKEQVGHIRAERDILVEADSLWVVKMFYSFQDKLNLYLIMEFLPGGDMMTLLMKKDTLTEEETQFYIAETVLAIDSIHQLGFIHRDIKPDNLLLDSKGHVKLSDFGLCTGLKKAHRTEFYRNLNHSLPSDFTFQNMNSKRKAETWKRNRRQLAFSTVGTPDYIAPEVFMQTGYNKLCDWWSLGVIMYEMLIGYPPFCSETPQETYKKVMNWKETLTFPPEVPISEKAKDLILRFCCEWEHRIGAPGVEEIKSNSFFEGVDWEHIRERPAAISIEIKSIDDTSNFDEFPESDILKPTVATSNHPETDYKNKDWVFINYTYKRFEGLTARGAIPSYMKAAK
# T2 sequence (Q08345 19-913): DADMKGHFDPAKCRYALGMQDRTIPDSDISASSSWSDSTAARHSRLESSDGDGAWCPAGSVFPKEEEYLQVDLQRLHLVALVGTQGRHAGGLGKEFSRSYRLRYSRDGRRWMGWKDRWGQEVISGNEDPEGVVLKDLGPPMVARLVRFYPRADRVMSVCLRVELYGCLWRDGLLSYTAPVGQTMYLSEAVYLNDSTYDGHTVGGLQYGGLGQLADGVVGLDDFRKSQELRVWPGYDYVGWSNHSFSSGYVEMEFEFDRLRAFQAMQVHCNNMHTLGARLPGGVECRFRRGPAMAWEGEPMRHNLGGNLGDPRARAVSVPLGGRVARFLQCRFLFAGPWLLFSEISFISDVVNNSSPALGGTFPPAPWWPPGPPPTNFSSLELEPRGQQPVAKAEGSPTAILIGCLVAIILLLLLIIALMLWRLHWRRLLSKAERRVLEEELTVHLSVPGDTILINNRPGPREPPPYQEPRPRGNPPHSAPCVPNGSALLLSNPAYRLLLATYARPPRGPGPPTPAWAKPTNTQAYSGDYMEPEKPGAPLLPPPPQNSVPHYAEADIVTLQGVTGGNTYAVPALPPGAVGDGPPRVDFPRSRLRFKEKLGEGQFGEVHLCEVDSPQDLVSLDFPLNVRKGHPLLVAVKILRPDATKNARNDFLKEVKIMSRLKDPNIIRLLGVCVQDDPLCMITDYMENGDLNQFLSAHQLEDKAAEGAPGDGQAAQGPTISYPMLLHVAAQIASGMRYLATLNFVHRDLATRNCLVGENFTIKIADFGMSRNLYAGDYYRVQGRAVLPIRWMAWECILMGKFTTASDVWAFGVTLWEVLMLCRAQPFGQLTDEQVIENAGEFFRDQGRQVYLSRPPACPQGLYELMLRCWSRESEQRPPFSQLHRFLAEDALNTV
# T9 sequence (P42685 whole entry): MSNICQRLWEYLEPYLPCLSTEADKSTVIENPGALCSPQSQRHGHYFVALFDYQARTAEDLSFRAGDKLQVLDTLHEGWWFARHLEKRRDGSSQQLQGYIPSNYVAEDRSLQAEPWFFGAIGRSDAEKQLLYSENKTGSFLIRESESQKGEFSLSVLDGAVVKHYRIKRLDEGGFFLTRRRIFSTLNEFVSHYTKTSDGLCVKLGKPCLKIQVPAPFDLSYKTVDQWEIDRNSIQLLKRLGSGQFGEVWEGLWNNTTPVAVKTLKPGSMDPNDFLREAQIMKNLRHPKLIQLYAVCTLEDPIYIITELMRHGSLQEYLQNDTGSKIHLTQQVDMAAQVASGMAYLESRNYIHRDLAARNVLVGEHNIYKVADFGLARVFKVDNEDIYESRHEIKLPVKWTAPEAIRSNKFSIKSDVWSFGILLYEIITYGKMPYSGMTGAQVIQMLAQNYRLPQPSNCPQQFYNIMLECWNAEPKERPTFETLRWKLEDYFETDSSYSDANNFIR
smiles,measurement,setting,value
CC(C)(C)C(=O)N1N=CC[C@H]1c1ccccc1 [GSK′963],remaining activity at 10 µM,[1]; [10],105%
same,remaining activity at 10 µM,[1]; [11],105%
same,remaining activity at 10 µM,[1]; [12],105%
same,remaining activity at 10 µM,[2]; [10],96%
same,remaining activity at 10 µM,[2]; [11],94%
same,remaining activity at 10 µM,[2]; [12],97.9%
same,remaining activity at 10 µM,[3]; [10],102%
same,remaining activity at 10 µM,[3]; [11],101%
same,remaining activity at 10 µM,[3]; [12],102%
same,remaining activity at 10 µM,[4]; [10],94.1%
same,remaining activity at 10 µM,[4]; [11],97%
same,remaining activity at 10 µM,[4]; [12],91.2%
same,remaining activity at 10 µM,[5]; [10],98.5%
same,remaining activity at 10 µM,[5]; [11],98.6%
same,remaining activity at 10 µM,[5]; [12],98.4%
same,remaining activity at 10 µM,[6]; [10],102%
same,remaining activity at 10 µM,[6]; [11],100%
same,remaining activity at 10 µM,[6]; [12],104%
same,remaining activity at 10 µM,[7]; [10],99.2%
same,remaining activity at 10 µM,[7]; [11],97.5%
same,remaining activity at 10 µM,[7]; [12],101%
same,remaining activity at 10 µM,[8]; [10],83%
same,remaining activity at 10 µM,[8]; [11],86.1%
same,remaining activity at 10 µM,[8]; [12],80%
same,remaining activity at 10 µM,[9]; [10],86%
same,remaining activity at 10 µM,[9]; [11],87.6%
same,remaining activity at 10 µM,[9]; [12],84.4%
